The experiment has as its system Plasmodium berghei. The experiment is described as follows: Luciferase/luciferin-expressing antifolate-resistant parasites were used to infect a culture of HepG2 cells that were pre-incubated with compounds. Infected hepatocytes emit light due to the luciferase reaction. Assay results are presented as the percent inhibition of light emission compared to control. […]. Type of experiment: functional. Conditions: sporozoite; for IC90: read-out: LUCIFERASE INFECTION ASSAY - IC90.

[1] abbreviates: read-out: LUCIFERASE INFECTION ASSAY - IC50.

pIC50: −log10 of the molar value.

As usually defined, the pIC50 is −log10 of the IC50, conventionally taken in molar units. One may read the IC90 as the concentration at which the effect reaches the 90% level.

As for `CCOC(=O)c1c(N)sc(Sc2ccccc2[N+](=O)[O-])c1-c1ccccc1`, the IC90 is more than 10 µM. The pIC50 (PBLUC_HILL_SLOPE 2.49, PBLUC_R_SQUARED 0.748, read-out: LUCIFERASE INFECTION ASSAY - IC50) is 5.36.

`CCOC(=O)c1ccc(S(=O)(=O)N2CCC(N(C)C)CC2)cc1`: the IC90 is more than 10 µM. For the same compound, the pIC50 under setting [1] is less than 5.00.

Regarding `CC1=CC2(C)C3C(=O)N(c4ccc(OC(F)(F)F)cc4)C(=O)C3C1C1C(=O)N(c3ccc(OC(F)(F)F)cc3)C(=O)C12` (stereo unspecified), the IC90 was more than 5.55 µM. Also, for the setting “HEPG2TOX_HILL_SLOPE 2.78, HEPG2TOX_R_SQUARED 0.438, PBLUC_HILL_SLOPE 7.06, PBLUC_R_SQUARED 0.285, read-out: LUCIFERASE INFECTION ASSAY - IC50”, the pIC50 is 5.29.

Consider `O=C(Nc1ccc(OC(F)(F)F)cc1)Nc1cc(-c2ccco2)n[nH]1`, for which the IC90 was more than 9.37 µM. The negative logarithm of the IC50 (pIC50) (PBLUC_HILL_SLOPE 2.58, PBLUC_R_SQUARED 0.157, read-out: LUCIFERASE INFECTION ASSAY - IC50) was 5.12.

With `O=C(c1[nH]nc2ccccc12)N1CCN(CCOc2ccc(Cl)cc2)CC1`, the IC90 is more than 10 µM. Further, the pIC50 (HEPG2TOX_HILL_SLOPE 12.2, HEPG2TOX_R_SQUARED 0.374, PBLUC_HILL_SLOPE 13.5, 22.4, PBLUC_R_SQUARED 0.492, 0.389, read-out: LUCIFERASE INFECTION ASSAY - IC50) is 5.04.

With `CNc1nc(CSc2ccc(Cl)cc2)nc2sc3c(c12)CCC3`, the concentration for an effect of 90% (IC90) is more than 10 µM. Moreover, the pIC50 under setting [1] was less than 5.00.

For the compound `Cc1oc(C(C)(C)C)cc1C(=O)Nc1ccc([N+](=O)[O-])cc1`, the IC90 is more than 10.9 µM. Further, under setting [1], the pIC50 was less than 4.96.

On to `O=[N+]([O-])c1ccc2c(c1)nc(SCc1ccc(Cl)cc1Cl)n2-c1ccccc1`, for which the 90% effect concentration (IC90) is more than 10 µM. For the same compound, for the setting “FFLUC_HILL_SLOPE 1.41, FFLUC_R_SQUARED 0.219, read-out: LUCIFERASE INFECTION ASSAY - IC50”, the pIC50 is less than 5.00.

As to `CN1CCN(C(=O)c2cccc(-c3cnc4cnc(-c5ccc(Cl)cc5)cn34)c2)CC1`, the concentration for an effect of 90% (IC90) was more than 7.64 µM. Under setting [1], the pIC50 was less than 5.12.

With `O=C(Nc1ccc(Cl)c(C(F)(F)F)c1)C(OC(=O)C12CC3CC(CC(C3)C1)C2)c1ccccc1` (stereo unspecified), the IC90 amounted to 9.6 µM. The pIC50 (HEPG2TOX_HILL_SLOPE 10.4, HEPG2TOX_R_SQUARED 0.074, PBLUC_HILL_SLOPE 15.3, PBLUC_R_SQUARED 0.511, read-out: LUCIFERASE INFECTION ASSAY - IC50) is 5.08.

On to `CC(Cn1cccn1)NC(=O)C(=O)Nc1ccccc1SC1CCCC1` (stereo unspecified), for which the IC90 was determined as 5.88 µM. Besides, the pIC50 (PBLUC_HILL_SLOPE 6.42, PBLUC_R_SQUARED 0.787, read-out: LUCIFERASE INFECTION ASSAY - IC50) was 5.38.

With `O=C1C=C(Nc2ccccc2)/C(=N\c2ccccc2)c2c1oc1ccc(Nc3ccccc3)cc21`, the IC90 is more than 10 µM. The pIC50 (FFLUC_HILL_SLOPE 1.75, FFLUC_R_SQUARED 0.754, HEPG2TOX_HILL_SLOPE 1.61, HEPG2TOX_R_SQUARED 0.885, read-out: LUCIFERASE INFECTION ASSAY - IC50) is less than 5.00.

As for `O=C1Nc2ccccc2SC1c1c(-c2ccc(Cl)cc2)cc2ccccn12` (stereo unspecified), the 90% effect concentration (IC90) was more than 10 µM. Besides, the pIC50 under setting [1] is less than 5.00.

In the case of `O=C(Cn1ncc(Cl)c(Cl)c1=O)N1CCc2ccccc21`, the IC90 is more than 10 µM. Further, the pIC50 (HEPG2TOX_HILL_SLOPE 5.62, HEPG2TOX_R_SQUARED 0.657, PBLUC_HILL_SLOPE 20.9, PBLUC_R_SQUARED 0.129, read-out: LUCIFERASE INFECTION ASSAY - IC50) was 5.04.

As to `COc1ccc(-c2csc3ncnc(Sc4nnc(-c5cccc(C)c5)n4CC(N)=O)c23)cc1`, the 90% effect concentration (IC90) was 2.23 µM. Under “HEPG2TOX_HILL_SLOPE 1.67, 2.83, HEPG2TOX_R_SQUARED 0.956, 0.971, PBLUC_HILL_SLOPE 8.88, 0.995, PBLUC_R_SQUARED 0.771, 0.637, read-out: LUCIFERASE INFECTION ASSAY - IC50”, the negative-log IC50 (pIC50) is 6.15.

For `Cc1cc(C)cc(C(=O)/C=c2\[nH]c(=O)/c(=C\c3cccs3)s2)c1`, the IC90 is more than 10 µM. Also, the pIC50 under setting [1] was less than 5.00.

For the compound `CNC(=O)c1ccc(CN(C2CC2)S(=O)(=O)c2cc([N+](=O)[O-])cc(C)c2C)cc1`, the IC90 was more than 10 µM. Further, the pIC50 (FFLUC_HILL_SLOPE 3.59, FFLUC_R_SQUARED 0.192, PBLUC_HILL_SLOPE 1.6, PBLUC_R_SQUARED 0.527, read-out: LUCIFERASE INFECTION ASSAY - IC50) is 5.30.

As to `O=C(Cc1csc(-c2ncccn2)n1)Oc1ccc(N2CCCC2=O)cc1`, the IC90 is more than 10 µM. Under setting [1], the pIC50 is less than 5.00.

With `COc1ccnc(N2CCN(C(c3ccccc3)c3ccccc3)CC2)c1C#N`, the IC90 is more than 8.58 µM. Also, the pIC50 (PBLUC_HILL_SLOPE 3.87, PBLUC_R_SQUARED 0.686, read-out: LUCIFERASE INFECTION ASSAY - IC50) was 5.23.

`O=C(CCc1ccc(-c2ccccc2)o1)Nc1nc(-c2ccccn2)cs1`: the IC90 is more than 10 µM. Under “FFLUC_HILL_SLOPE 12.1, FFLUC_R_SQUARED 0.705, read-out: LUCIFERASE INFECTION ASSAY - IC50”, the pIC50 was less than 5.00.

In the case of `COC(=O)c1scc(S(=O)(=O)c2ccc(Cl)cc2)c1C`, the IC90 was more than 9.98 µM. For the same compound, the pIC50 under setting [1] is less than 5.00.

With `O=[N+]([O-])c1ccc(Sc2ccc(Cl)cc2)c(-c2cc[nH]n2)c1`, the 90% effect concentration (IC90) was more than 9.95 µM. Further, the pIC50 (FFLUC_HILL_SLOPE 2.47, FFLUC_R_SQUARED 0.0888, HEPG2TOX_HILL_SLOPE 0.21, HEPG2TOX_R_SQUARED 0.178, PBLUC_HILL_SLOPE 0.977, PBLUC_R_SQUARED 0.273, read-out: LUCIFERASE INFECTION ASSAY - IC50) was less than 5.00.

Take `CC(C)c1ccc(Nc2nccc3nc(-c4cccc(C(F)(F)F)c4)[nH]c23)cc1`: the IC90 is more than 10 µM. Also, for the setting “HEPG2TOX_HILL_SLOPE 8.02, HEPG2TOX_R_SQUARED 0.493, PBLUC_HILL_SLOPE 1.32, PBLUC_R_SQUARED 0.475, read-out: LUCIFERASE INFECTION ASSAY - IC50”, the pIC50 is 5.39.

For `O/N=C1\CC(c2ccccc2)Sc2ccccc21` (stereo unspecified), the IC90 is more than 12.9 µM. Besides, under “PBLUC_HILL_SLOPE 0.783, PBLUC_R_SQUARED 0.658, read-out: LUCIFERASE INFECTION ASSAY - IC50”, the pIC50 is 5.41.

In the case of `O=C1C(=O)N(Cc2cc3c(cc2Cl)OCO3)c2ccc(Cl)cc21`, the IC90 was more than 9.42 µM. In addition, where the note is “FFLUC_HILL_SLOPE 2.77, FFLUC_R_SQUARED 0.777, PBLUC_HILL_SLOPE 11.7, PBLUC_R_SQUARED 0.0264, read-out: LUCIFERASE INFECTION ASSAY - IC50”, the pIC50 is 5.07.

`CC(=O)Nc1cccc(-c2cn3c(-c4ccc5c(ccn5C)c4)cnc3cn2)c1`: the IC90 was 7.79 µM. The pIC50 (HEPG2TOX_HILL_SLOPE 2.25, HEPG2TOX_R_SQUARED 0.952, PBLUC_HILL_SLOPE 1.38, PBLUC_R_SQUARED 0.642, read-out: LUCIFERASE INFECTION ASSAY - IC50) is 5.80.

Regarding `CN(C)CCNC(=O)c1cccc(-c2cnc3ccc(-c4ccc(F)cc4)nn23)c1`, the IC90 was more than 10 µM. In addition, the pIC50 (HEPG2TOX_HILL_SLOPE 10.3, HEPG2TOX_R_SQUARED 0.505, PBLUC_HILL_SLOPE 2.09, PBLUC_R_SQUARED 0.253, read-out: LUCIFERASE INFECTION ASSAY - IC50) is 5.31.

Take `CC(C)(C)c1ccc(OCC(=O)NNC(=O)Cc2csc(-c3ccccc3)n2)cc1`: the IC90 was more than 10 µM. Moreover, the pIC50 under setting [1] was less than 5.00.

For the compound `c1csc(-c2cn3c(-c4ccsc4)cnc3cn2)c1`, the IC90 is more than 11.6 µM. For the setting “PBLUC_HILL_SLOPE 10.9, PBLUC_R_SQUARED 0.0923, read-out: LUCIFERASE INFECTION ASSAY - IC50”, the pIC50 is less than 4.94.

On to `Cc1cccc(C)c1N1C(=O)CC(N2CCCC(c3nc4ccccc4s3)C2)C1=O` (stereo unspecified), for which the IC90 came to 9.05 µM. The pIC50 (PBLUC_HILL_SLOPE 1.45, PBLUC_R_SQUARED 0.739, read-out: LUCIFERASE INFECTION ASSAY - IC50) was 5.70.

Turning to `COC(=O)c1sccc1N/N=C(\C#N)S(=O)(=O)c1ccc(Cl)cc1`, the concentration for an effect of 90% (IC90) is more than 8.6 µM. Also, the pIC50 under setting [1] is less than 5.07.

Take `CCOC(=O)c1c(-c2ccccc2)csc1NC(=O)C(C)OC(=O)c1ccccc1NS(=O)(=O)c1cccc(C(F)(F)F)c1` (stereo unspecified): the IC90 was more than 10 µM. In addition, the pIC50 under setting [1] is less than 5.00.

`CC(C)Oc1ccc(Nc2cc3c(cn2)nc(NCc2ccccc2)n3C)cc1`: the IC90 was more than 10 µM. Under “PBLUC_HILL_SLOPE 3.16, PBLUC_R_SQUARED 0.219, read-out: LUCIFERASE INFECTION ASSAY - IC50”, the pIC50 is 5.24.

`O=C1OC(c2ccccc2)=N/C1=C\c1ccc([N+](=O)[O-])s1`: the IC90 was more than 11 µM. Besides, the pIC50 under setting [1] was less than 4.96.

As to `O=C(Nc1ccc(SC(F)(F)F)cc1)Nc1ccc(Oc2ccc(Cl)cc2Cl)nc1`, the IC90 was 5.98 µM. For the same compound, for the setting “FFLUC_HILL_SLOPE 4.22, FFLUC_R_SQUARED 0.441, HEPG2TOX_HILL_SLOPE 15.8, HEPG2TOX_R_SQUARED 0.933, PBLUC_HILL_SLOPE 1.66, PBLUC_R_SQUARED 0.482, read-out: LUCIFERASE INFECTION ASSAY - IC50”, the pIC50 is 5.80.

Regarding `O=C(Nc1ccc(Cl)cc1C(F)(F)F)C(OC(=O)C(c1ccccc1)c1ccccc1)c1ccccc1` (stereo unspecified), the IC90 is more than 10 µM. For the same compound, the pIC50 under setting [1] was less than 5.00.

Consider `Cc1cccc(OCCCC(=O)Nc2cc(C)n[nH]2)c1`, for which the IC90 is 1.35 µM. Besides, the pIC50 (HEPG2TOX_HILL_SLOPE 2.94, HEPG2TOX_R_SQUARED 0.896, PBLUC_HILL_SLOPE 6.3, PBLUC_R_SQUARED 0.571, read-out: LUCIFERASE INFECTION ASSAY - IC50) is 6.02.

For the compound `Cc1cnc(Nc2ncnc3ccccc23)s1`, the IC90 is more than 10 µM. Besides, the negative logarithm of the IC50 (pIC50) under setting [1] was less than 5.00.
